Results from patent US8044098B2, “Use of hydroxybenzoic acids and their esters and analogues for preventing or treating virus infection” (Shenghua Guangzhou Pharmaceutical Science & Technology Co., …, priority 2005, dated 2011).

What was measured:
HPV 6/11 = test: Drug screening by quantitative fluorescent PCR analysis of HPV 6/11 in condyloma acuminata homogenate; design: species or system human papillomavirus (HPV); conditions: for HPV 6/11 Virus (copies/ml): 50 μl 10% micro emulsion + 50 μl HPV sample homogenate, 37° C., 24 hours, saline control 1.45 × 10^6; for HPV 6/11 detected by FQ-PCR (in words): 24 hours after adding the test compound
HPV 16/18 = test: Drug screening by quantitative fluorescent PCR analysis of HPV 16/18 in condyloma acuminata homogenate; design: species or system human papillomavirus (HPV); conditions: for HPV 16/18 Virus (copies/ml): 50 μl 10% micro emulsion + 50 μl HPV sample homogenate, 37° C., 24 hours, saline control 1.40 × 10^5; for HPV 16/18 detected by FQ-PCR (in words): 24 hours after adding the test compound
[1] = system: secretion of HBsAg by 2.2.15 cells; test: Inhibition of secretion of HBsAg by Hepatitis B 2.2.15 cell line; format: cell-based, HBV; conditions: 1 μmol/ml; for HBsAg Inhibition rate: 2.2.15 cells, supernatant collected three days later
Text: (§1) Hepatitis B 2.2.15 cell line was transfected by HBV DNA (purchased from Institute of Biochemistry and Cell Biology of Shanghai Institute for Biological Sciences or the National Center for Drug Screening) and used as the cell model for screening anti-HBV drug compounds (See Chinese Journal Of Integrated Traditional and Western Medicine on Liver Diseases, 2004, 14(3): 158). The cell culture medium DMEM (GIBCO Company), bovine serum (Hangzhou Siji Qing Biochemical Manufacturer), G418 (GIBCO Company), 3-(4,5-dimethylthiazol-2-yl)-2,5-diphenyltetrazoliumbromide (Sigma), HBsAg and HBeAg diagnostic kit (Shanghai Kehua Bio-engineering Co., Ltd).
(§2) The test compounds listed in Table 3 below were dissolved in a mixture containing 20 ml 1,2-propylene glycol and 15 ml Tween-80 and diluted with sterile saline water to 2 μmol/ml of the test compound. Then it was mixed with the cell culture medium at equal volume to obtain a solution containing 1 μmol/ml of the tested compound. Cells at the concentration of 1×10^5 cells per milliliter were inoculated to a 24-well plate at 1 ml/well. Supernatant from the cell culture mixture was collected three days later for testing.

[2] = system: secretion of HBeAg by 2.2.15 cells; test: Inhibition of secretion of HBeAg by Hepatitis B 2.2.15 cell line; format: cell-based, HBV; conditions: 1 μmol/ml; for HBeAg Inhibition Rate: 2.2.15 cells, supernatant collected three days later
Text: as §1, §2

condyloma acuminata = test: Clinical use in treating condyloma acuminata; format: in vivo, human; conditions: for treatment effect compared to recombinant human interferon α-2β gel: condyloma acuminata patients, 10% micro emulsion; for Recovered, 1-4 days: number of patients (50 patients in five groups), 10% micro emulsion on affected areas three times a day; for Obvious Effect, 1-4 days / Obvious Effect, 5-8 days: more than 70% of the skin lesions disappeared; for Improved: more than 30% of the skin lesions disappeared
Text: Soft hyperplasia with nipple or cauliflower shaped or other shaped warts were found around the skin of the cunnus or anus. The result from 5% acetate acid white test was positive.
Patients selected for the clinical observation must meet the above standards. Plus the diameter of their skin lesions should equal to or be less than 1 cm. […] Patients who had vaginal yeast, trichomonas, bacteria infection or other complications, chronic diseases, serious liver or kidney diseases or women in pregnancy or lactation were not selected. Treatments to women would not be conducted in their menstrual periods.
50 qualified patients were selected and randomly divided into five groups to be tested with p-hydroxybenzoic acid, gallic acid, ethyl p-hydroxybenzoate, propyl gallate and recombinant human interferon α-2β gel, respectively. The samples of p-hydroxybenzoic acid, gallic acid, ethyl p-hydroxybenzoate and propyl gallate were prepared as described in Example 1. The patients were treated with the test sample to the affected areas three times a day, in the morning, at noon and night. The samples were applied to cover the warts and the patients were required to leave the treated areas exposed and not to move for 20 minutes.
Observation time: 8 days. Patients not cured after 8 days would continue to use the test samples for another 12 weeks, and their prognosis was followed during the 12-week period.
Observed items: the location, shape, size and number of warts were carefully observed and recorded before the treatment.
“Recovered”: all skin lesions had disappeared;
“Obvious Effect”: more than 70% of the skin lesions had disappeared;
“Improved”: more than 30% of the skin lesions had disappeared;
“Not Effective”: less than 30% of the skin lesions had disappeared or the original skin lesions didn't change or even enlarged.

HSV infection = test: External treatment of HSV infection in clinical tests; format: in vivo, human; conditions: patients with HSV infection, applied on affected areas three times a day
Text: Twenty-two patients who were clinically diagnosed with HSV infection were randomly selected and divided into two groups. Acyclovir ointment and micro emulsion containing propyl gallate prepared as described in Example 1 were applied to the two groups, respectively, on the affected areas of the patients three times a day.

[3] = format: physicochemical
Description: 20 ml 1,2-propylene glycol, 15 ml Tween-80 and 5 ml azone were mixed together and sterile distilled water was added to bring the volume to 100 ml. The pH value of the solution was adjusted to pH 6.8 with NaOH or HCl to obtain a micro emulsion. 10 g propyl gallate and 10 g gallic acid were dissolved in the micro emulsion, respectively, and mixed well. 10 ml of each micro emulsion was added to a capped transparent glass tube. Both solutions were colorless. The absorbance of the two solutions at 400˜500 nm was measured with spectrophotometry and their absorbance was under 0.15. […] Measured by spectrophotometry again, the absorbance of the gallic acid solution was 1.2 and that of the propyl gallate solution was 0.4.

[4] = number of patients, observation 8 days

SMILES	HPV 6/11 Virus (copies/ml) (HPV 6/11)	HPV 6/11 detected by FQ-PCR (in words) (HPV 6/11)	HPV 16/18 Virus (copies/ml) (HPV 16/18)	HPV 16/18 detected by FQ-PCR (in words) (HPV 16/18)	further results
O=C(O)c1ccc(O)c(O)c1O [2,3,4-trihydroxybenzoic acid]	0 copies/ml	no HPV 6/11 or HPV 16/18 was detected	0 copies/ml	no HPV 6/11 or HPV 16/18 was detected	
O=C(O)c1cccc(O)c1O [2,3-dihydroxybenzoic acid]	2.30 × 10^4 copies/ml		3.20 × 10^3 copies/ml		
O=C(O)c1ccc(O)cc1O [2,4-dihydroxybenzoic acid]	1.60 × 10^4 copies/ml		4.60 × 10^3 copies/ml		
O=C(O)c1ccc(O)c(O)c1 [3,4-dihydroxybenzoic acid]	1.90 × 10^4 copies/ml		8.50 × 10^4 copies/ml		effect on the secretion of HBsAg by the 2.2.15 cells (in words) [1]: had inhibition effect; HBsAg Inhibition rate [1]: 9.81%; effect on the secretion of HBeAg by the 2.2.15 cells (in words) [2]: had inhibition effect; HBeAg Inhibition Rate [2]: 8.92%
O=C(O)c1cc(Cl)c(O)c(Cl)c1 [3,5-dicloro-4-hydroxybenzoic acid]	2.30 × 10^3 copies/ml		2.60 × 10^4 copies/ml		
O=C(O)c1ccc(O)c(Br)c1 [3-bromo-4-hydroxybenzoic acid]	3.40 × 10^3 copies/ml		5.00 × 10^4 copies/ml		
O=C(O)c1ccccc1 [Benzoic acid, benzoic acid]	3.60 × 10^5 copies/ml		2.90 × 10^4 copies/ml		
CCOC(=O)c1ccc(O)c(O)c1 [Ethyl 3,4-dihydroxybenzoate]					effect on the secretion of HBsAg by the 2.2.15 cells (in words) [1]: had inhibition effect; inhibition of HBsAg secretion compared with gallic acid and 3,4-dihydroxybenzoic acid [1]: more effective; HBsAg Inhibition rate [1]: 14.20%; effect on the secretion of HBeAg by the 2.2.15 cells (in words) [2]: had inhibition effect; inhibition of HBeAg secretion compared with gallic acid and 3,4-dihydroxybenzoic acid [2]: more effective; HBeAg Inhibition Rate [2]: 6.04%
CCOC(=O)c1cc(O)c(O)c(O)c1 [Ethyl gallate]	0 copies/ml	no HPV 6/11 or HPV 16/18 was detected	0 copies/ml	no HPV 6/11 or HPV 16/18 was detected	
CCOC(=O)c1ccc(O)cc1 [Ethyl p-hydroxybenzoate]	8.50 × 10^4 copies/ml		0 copies/ml	not detected	treatment effect compared to recombinant human interferon α-2β gel (condyloma acuminata): more apparent treatment effect; Recovered, 1-4 days (condyloma acuminata; all skin lesions disappeared): 6; Recovered, 5-8 days (condyloma acuminata; number of patients, 10% micro emulsion three times a day, all skin lesions disappeared): 2; Obvious Effect, 1-4 days (condyloma acuminata; number of patients): 2
O=C(O)c1cc(O)c(O)c(O)c1 [Gallic acid]	0 copies/ml	no HPV 6/11 or HPV 16/18 was detected	0 copies/ml	no HPV 6/11 or HPV 16/18 was detected	treatment effect compared to recombinant human interferon α-2β gel (condyloma acuminata): more apparent treatment effect; Recovered, 1-4 days (condyloma acuminata; all skin lesions disappeared): 2; Improved (condyloma acuminata; [4]): 4; Obvious Effect, 1-4 days (condyloma acuminata; number of patients): 3; Obvious Effect, 5-8 days (condyloma acuminata; number of patients): 1; effect on the secretion of HBsAg by the 2.2.15 cells (in words) [1]: had inhibition effect; HBsAg Inhibition rate [1]: 8.83%; effect on the secretion of HBeAg by the 2.2.15 cells (in words) [2]: had inhibition effect; HBeAg Inhibition Rate [2]: 9.40%; average time for recovery (HSV infection): 3 days; colour of solution, initial ([3]; micro emulsion pH 6.8, freshly prepared): colorless; absorbance after 30 days ([3]; micro emulsion pH 6.8, kept at room temperature for 30 days, 400˜500 nm): 1.2; colour of solution after 30 days ([3]; micro emulsion pH 6.8, room temperature for 30 days): light brown
COC(=O)c1ccc(O)c(O)c1O [Methyl 2,3,4-trihydroxybenzoate]	0 copies/ml	no HPV 6/11 or HPV 16/18 was detected	0 copies/ml	no HPV 6/11 or HPV 16/18 was detected	
COC(=O)c1cccc(O)c1O [Methyl 2,3-dihydroxybenzoate]	3.00 × 10^4 copies/ml		4.20 × 10^2 copies/ml		
COC(=O)c1ccc(O)cc1O [Methyl 2,4-dihydroxybenzoate]	5.20 × 10^4 copies/ml		2.50 × 10^2 copies/ml		
COC(=O)c1ccc(O)c(O)c1 [Methyl 3,4-dihydroxybenzoate]	8.50 × 10^4 copies/ml		6.00 × 10^2 copies/ml		
COC(=O)c1cc(O)c(O)c(O)c1 [Methyl gallate]	0 copies/ml	no HPV 6/11 or HPV 16/18 was detected	0 copies/ml	no HPV 6/11 or HPV 16/18 was detected	
CCCCCCCCOC(=O)c1cccc(O)c1O [Octyl 2,3-dihydroxybenzoate]	2.20 × 10^2 copies/ml		1.50 × 10^2 copies/ml		
CCCCCCCCOC(=O)c1cc(O)c(O)c(O)c1 [Octyl gallate]	0 copies/ml	no HPV 6/11 or HPV 16/18 was detected	0 copies/ml	no HPV 6/11 or HPV 16/18 was detected	
CCCOC(=O)c1ccc(O)c(O)c1O [Propyl 2,3,4-trihydroxybenzoate]	0 copies/ml	no HPV 6/11 or HPV 16/18 was detected	0 copies/ml	no HPV 6/11 or HPV 16/18 was detected	
O=C(O)c1ccccc1O [Salicylic acid, salicylic acid, reference compound]	5.50 × 10^5 copies/ml		2.60 × 10^4 copies/ml		
CCCCCCCCCCCCOC(=O)c1cc(O)c(O)c(O)c1 [dodecyl gallate, Dodecyl gallate]	6.70 × 10^4 copies/ml		4.90 × 10^4 copies/ml		
O=C(O)c1ccc(O)cc1 [p-hydroxybenzoic acid]	7.00 × 10^5 copies/ml		1.30 × 10^3 copies/ml		treatment effect compared to recombinant human interferon α-2β gel (condyloma acuminata): more apparent treatment effect; Not Effective (condyloma acuminata; number of patients, less than 30% of the skin lesions disappeared, observation 8 days): 3; Improved (condyloma acuminata; [4]): 2; Obvious Effect, 5-8 days (condyloma acuminata; number of patients): 5
